Assays:
[1] = tested on: melanoma, renal cell carcinoma, and ovarian cancer; details: including decreased metastasis and increased overall survival; cited from earlier work
[2] = subcutaneous injection; cited from earlier work
[3] = tested on: advanced clear-cell renal-cell carcinoma; details: cited from earlier work; for objective response rate: patients after one or two antiangiogenic regimens, nivolumab 3 mg/kg iv every two weeks or everolimus 10 mg orally daily, P<0.001
[4] = Solubility of X4P-001 as a function of pH; type: physicochemical
in vivo = test: in vivo
Experimental: In certain embodiments, the dosage composition may be provided twice a day in divided dosage, approximately 12 hours apart. In other embodiments, the dosage composition may be provided once daily. […] Dosage for oral administration may be from about 100 mg to about 1200 mg once or twice per day.

[5] = oral administration, healthy volunteers and HIV patients; cited from earlier work
[6] = nivolumab compared to everolimus

## c1cc(CN2CCCNCCNCCCNCC2)ccc1CN1CCCNCCNCCCNCC1 [Plerixafor, reference compound]
[1]
  anti-tumor activity: significant anti-tumor activity
[2]
  half life: very short

## nivolumab: human IgG4 anti-PD-1 monoclonal antibody
[3]; [6]
  incidence of Grade 3 or 4 treatment-related adverse events: lower incidence
  median overall survival: longer
[3]
  objective response rate: 25%

## CO[C@H]1C[C@@H]2CC[C@@H](C)[C@@](O)(O2)C(=O)C(=O)N2CCCC[C@H]2C(=O)O[C@H]([C@H](C)C[C@@H]2CC[C@@H](OCCO)[C@H](OC)C2)CC(=O)[C@H](C)/C=C(\C)[C@@H](O)[C@@H](OC)C(=O)[C@H](C)C[C@H](C)/C=C/C=C/C=C/1C [everolimus]
[3]
  objective response rate: 5%

## NCCCCN(Cc1nc2ccccc2[nH]1)[C@H]1CCCc2cccnc21 [X4P-001]
[4]; aqueous buffer, pH range 3.0 to 8.0 (freely soluble)
  solubility: > 100 mg/mL
[4]; water
  Solubility in water: only slightly soluble
In vivo
  terminal half-life: approximately 14.5 hrs
In vivo; terminal half-life
  half-life: 12 to 24 h
[5]
  pharmacodynamic activity: circulating white blood cells (WBCs): dose- and concentration-related changes
  volume of distribution (VL): high
[1]
  anti-tumor activity: significant anti-tumor activity
